For one experiment, the target named is B-Raf (V600E) (h) (Homo sapiens, UniProt P15056, V600E). Description: Kinase inhibition assay B-Raf (V600E) (h), radiometric 33P-ATP filter assay. It is filed as biochemical. As to conditions: read-out: IC50(nM) BRAF^V600E. The procedure:
(§1) b-Raf (V599E) (h) was incubated with 25 mM Tris/HCl pH 7.5, 0.2 mM EGTA, 10 mM DTT, 0.01% Triton X-100, 0.5 mM, sodium orthovandate, 0.5 mM […], 1% glycerol, 34 nM unactive MEK1, 69 nM unactive MAPK2, 0.5 mg/mL myelin basic protein, and 10 mM Magnesium acetate and […] (specific activity and concentration as required). The reaction was initiated by the addition of the Mg/ATP mix. After incubation for 40 minutes at room temperature, the reaction was stopped by the addition of phosphoric acid to a concentration of 0.5%. 10 μL of the reaction was then spotted onto a P30 filtermat and washed four times for 4 minutes in 0.425% phosphoric acid and once in methanol prior to drying and scintillation counting. Similar protocols were used for other kinase assays employing the kinase of interest to generate the data in Table 1.

Another experiment has as its target BRAF (Homo sapiens, UniProt P15056). Kind of experiment: Kinase inhibition assay BRAF (similar protocol). It is filed as biochemical. On the procedure: as §1
The target of experiment [1] is T1, CRAF (Homo sapiens, UniProt P04049). Description: Kinase inhibition assay CRAF (similar protocol). It is filed as biochemical. The procedure:
as §1

Experiment [2] has as its target T2, ARAF (Homo sapiens, UniProt P10398).
T2 sequence (P10398 1-606): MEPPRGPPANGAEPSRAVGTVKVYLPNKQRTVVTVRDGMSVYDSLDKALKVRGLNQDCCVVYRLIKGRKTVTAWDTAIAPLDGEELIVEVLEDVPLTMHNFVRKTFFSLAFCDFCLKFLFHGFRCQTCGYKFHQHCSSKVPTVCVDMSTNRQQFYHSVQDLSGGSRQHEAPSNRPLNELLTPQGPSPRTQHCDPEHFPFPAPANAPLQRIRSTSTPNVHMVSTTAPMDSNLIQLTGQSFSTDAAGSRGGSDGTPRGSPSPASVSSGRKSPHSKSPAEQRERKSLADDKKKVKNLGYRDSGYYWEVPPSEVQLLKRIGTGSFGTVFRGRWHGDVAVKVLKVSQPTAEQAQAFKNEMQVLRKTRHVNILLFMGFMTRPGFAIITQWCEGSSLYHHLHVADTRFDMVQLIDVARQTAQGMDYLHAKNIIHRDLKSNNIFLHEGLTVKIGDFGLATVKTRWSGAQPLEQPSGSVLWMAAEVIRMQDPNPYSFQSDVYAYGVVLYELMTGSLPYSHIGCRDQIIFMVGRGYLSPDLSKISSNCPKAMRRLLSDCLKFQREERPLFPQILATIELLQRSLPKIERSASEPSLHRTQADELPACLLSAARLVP
Description: Kinase inhibition assay ARAF (similar protocol). It is filed as biochemical. On the procedure: as §1

The target in another experiment is T3, BRAF^V600E (Homo sapiens, UniProt P15056, V600E).
T3 construct: A375 or SK-Mel-28 cells were obtained from ATCC; host or cells: A375 or SK-Mel-28
Description: Cellular degradation assay, Western blot of BRAF^V600E. It is filed as cell-based. The procedure: (§2) Cell culture and compound treatment: A375 or SK-Mel-28 cells were obtained from ATCC and cultured in Dulbecco's Modified Eagle Media (DMEM) supplemented with 10% FBS, penicillin and streptomycin, at 37° C., 5% CO2. Cells grown in 6-well plates were treated for 24 hours with test compounds (solubilized in DMSO) or 0.1% DMSO vehicle control. Cells were harvested by first washing with 1× phosphate-buffered saline (PBS), then scrapping into 1 ml of PBS supplemented with 1 mM phenylmethylsulfonylflouride (PMSF). Cell pellets were obtained after a centrifugation at 300-350×g for 2 min, and immediately snap frozen in liquid nitrogen.
(§3) Cell lysis and Western blot analysis: Cell pellets were thawed and lysed by pipetting in lysis buffer (50 mM HEPES (pH 7.4), 150 mM NaCl, 5 mM EDTA, 0.5% NP-40, 5 mM NaF, 10% glycerol), with Roche protease inhibitor cocktail (5056489001) and phosphatase inhibitor cocktail PhosStop (4906845001) added fresh before use. The whole cell lysate was clarified by centrifugation at 15,000-20,000×g for 20 min and supernatant was collected. Total protein concentration in the clarified lysate was determination by Bradford assay (Bio-Rad), and 30-50 ug of protein was separated through SDS-PAGE, transferred onto nitrocellulose membrane and subject to standard immunoblotting protocol. Band intensities were quantified by Bio-Rad Image Lab software. Antibodies to B-Raf (sc-5284), A-Raf (sc-166771), phosphor MEK1/2, pS218/222 (sc-7995), phosphor ERK1/2 (sc-7383) were purchased from Santa Cruz; C-Raf (9422), MEK1/2 (9122), ERK1/2 (9102) from Cell Signaling; p27 (610242) from BD Biosciences. Antibody to the loading control α-tubulin was obtained from Sigma-Aldrich (6199).

The test system of experiment [3] is MEK and ERK kinase phosphorylation. Description: Immunoblot of downstream MEK and ERK kinase phosphorylation in A375 cells. It is filed as cell-based. The conditions noted are these: A375 human melanoma cells, 24 hrs. On the procedure:
as §2
as §3, with “Antibodies to B-Raf (sc-5284), A-Raf (sc-166771), phosphor MEK1/2, pS218/222 (sc-7995), phosphor ERK1/2 (sc-7383) were purchased from Santa Cruz; C-Raf (9422), MEK1/2 (9122), ERK1/2 (9102) from Cell Signaling; p27 (610242) from BD Biosciences. Antibody to the loading control α-tubulin was obtained from Sigma-Aldrich (6199).” left out

The target of experiment [4] is T2, ARAF. Kind of experiment: Cellular degradation assay, Western blot of ARAF. It is filed as cell-based. Details: host or cells: A375. The conditions noted are these: A375 human melanoma cells, 24 hrs; negative control 100 nM, PROTAC 0 to 4000 nM. On the procedure:
as §2
as §3, with “Antibodies to B-Raf (sc-5284), A-Raf (sc-166771), phosphor MEK1/2, pS218/222 (sc-7995), phosphor ERK1/2 (sc-7383) were purchased from Santa Cruz; C-Raf (9422), MEK1/2 (9122), ERK1/2 (9102) from Cell Signaling; p27 (610242) from BD Biosciences. Antibody to the loading control α-tubulin was obtained from Sigma-Aldrich (6199).” left out

Experiment [5] deals with T1, CRAF. Kind of experiment: Cellular degradation assay, Western blot of CRAF. It is filed as cell-based. The conditions noted are these: A375 human melanoma cells, 24 hrs; negative control 100 nM, PROTAC 0 to 4000 nM. Details: host or cells: A375. On the procedure:
as §2
as §3, with “Antibodies to B-Raf (sc-5284), A-Raf (sc-166771), phosphor MEK1/2, pS218/222 (sc-7995), phosphor ERK1/2 (sc-7383) were purchased from Santa Cruz; C-Raf (9422), MEK1/2 (9122), ERK1/2 (9102) from Cell Signaling; p27 (610242) from BD Biosciences. Antibody to the loading control α-tubulin was obtained from Sigma-Aldrich (6199).” left out

The structures appear in SMILES notation. Like-named read-outs stand apart in the source and are kept apart here.

T3 sequence (P15056 whole entry V600E): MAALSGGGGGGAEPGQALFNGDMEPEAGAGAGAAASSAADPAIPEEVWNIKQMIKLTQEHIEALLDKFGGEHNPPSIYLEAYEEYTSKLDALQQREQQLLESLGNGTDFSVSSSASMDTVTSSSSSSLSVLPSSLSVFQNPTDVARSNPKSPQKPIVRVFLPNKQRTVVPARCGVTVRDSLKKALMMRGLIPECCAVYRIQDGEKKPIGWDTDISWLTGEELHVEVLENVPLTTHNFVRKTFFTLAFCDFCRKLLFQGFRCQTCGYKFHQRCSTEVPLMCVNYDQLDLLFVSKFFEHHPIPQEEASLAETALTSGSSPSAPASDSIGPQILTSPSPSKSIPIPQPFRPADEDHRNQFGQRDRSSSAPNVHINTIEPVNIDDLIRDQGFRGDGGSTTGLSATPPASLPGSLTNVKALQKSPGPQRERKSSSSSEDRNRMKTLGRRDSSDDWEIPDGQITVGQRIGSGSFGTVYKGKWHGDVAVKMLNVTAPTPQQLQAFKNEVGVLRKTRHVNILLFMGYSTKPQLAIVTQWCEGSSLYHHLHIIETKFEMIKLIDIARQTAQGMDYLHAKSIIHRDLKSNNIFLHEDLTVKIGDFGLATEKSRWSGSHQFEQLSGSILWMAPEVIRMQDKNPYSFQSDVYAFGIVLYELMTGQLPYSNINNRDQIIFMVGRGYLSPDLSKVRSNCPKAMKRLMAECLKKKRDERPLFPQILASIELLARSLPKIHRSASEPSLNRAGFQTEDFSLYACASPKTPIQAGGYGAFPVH
T1 sequence (P04049 whole entry): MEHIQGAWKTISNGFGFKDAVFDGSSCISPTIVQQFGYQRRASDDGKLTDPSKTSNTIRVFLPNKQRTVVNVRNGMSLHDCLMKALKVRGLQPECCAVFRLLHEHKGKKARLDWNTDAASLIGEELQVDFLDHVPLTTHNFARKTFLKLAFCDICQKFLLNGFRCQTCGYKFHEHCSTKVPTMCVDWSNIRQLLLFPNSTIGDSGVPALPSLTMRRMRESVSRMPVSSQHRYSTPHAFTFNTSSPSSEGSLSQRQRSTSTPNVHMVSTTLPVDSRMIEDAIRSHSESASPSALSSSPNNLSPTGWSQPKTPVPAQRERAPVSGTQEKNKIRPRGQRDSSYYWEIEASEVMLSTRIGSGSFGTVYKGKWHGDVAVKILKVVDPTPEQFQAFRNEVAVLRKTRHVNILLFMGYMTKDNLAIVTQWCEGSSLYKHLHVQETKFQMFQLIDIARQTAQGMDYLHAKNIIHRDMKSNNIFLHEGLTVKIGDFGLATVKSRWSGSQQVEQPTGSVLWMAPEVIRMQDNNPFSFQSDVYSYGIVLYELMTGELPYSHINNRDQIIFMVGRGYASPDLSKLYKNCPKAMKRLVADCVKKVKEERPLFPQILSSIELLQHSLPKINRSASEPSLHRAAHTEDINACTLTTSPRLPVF
Chain of B-Raf (V600E) (h) (P15056 whole entry V600E): as the sequence (P15056 whole entry V600E) above
Chain of BRAF (P15056 whole entry): as the sequence (P15056 whole entry V600E) above, with E600V counted along it

Consider `CCCS(=O)(=O)Nc1ccc(F)c(-n2cc(-c3cncnc3)c3nc(N(C)C4CCN(C(=O)CCOCCOCCOCCOCCNc5cccc6c5C(=O)N(C5CCC(=O)NC5=O)C6=O)CC4)ccc32)c1F` (stereo not drawn) [Entry 17, N-(3-(5-((1-(1-((2-(2,6-dioxopiperidin-3-yl)-1,3-dioxoisoindolin-4-yl)amino)-3,6,9,12-tetraoxapentadecan-15-oyl)piperidin-4-yl)(methyl)amino)-3-(pyrimidin-5-yl)-1H-pyrrolo[3,2-b]pyridin-1-yl)-2,4-difluorophenyl)propane-1-sulfonamide], for which the IC50 was determined as 12 nM on B-Raf (V600E) (h); 58 nM on BRAF; 167 nM against CRAF [1]; 2220 nM on ARAF [2]; 20 nM in experiment [3] (A-375, read-out: BRAF^V600E IC50, inhibition of downstream MEK and ERK kinase phosphorylation, 0 to 4000 nM). Besides, the “DCmax, degradation of BRAF^V600E kinase (FIG. 3C)” value on BRAF^V600E (A375 human melanoma cells, 24 hrs, 0 to 4000 nM) was 80%. Besides, the DC50 came to 20 nM on BRAF^V600E (A375 human melanoma cells, 24 hrs, 0 to 4000 nM, read-out: DC50, degradation of BRAF^V600E kinase (FIG. 3C)) and 15 nM at BRAF^V600E (Table 1, cells treated 24 hours, Western blot, read-out: DC50(nM) BRAF^V600E). Moreover, the “DCmax(%) BRAF^V600E” value at BRAF^V600E (Table 1, cells treated 24 hours, Western blot) worked out at 82%. Moreover, the “inhibition of downstream MEK and ERK kinase phosphorylation (FIG. 3C)” value in experiment [3] (negative control 100 nM, PROTAC 0 to 4000 nM) was “inhibition of downstream MEK and ERK kinase phosphorylation”. Besides, the “degradation activity on ARAF (FIG. 3C)” value on ARAF [4] was “not ARAF and CRAF”. Further, the “degradation activity on CRAF (FIG. 3C)” value on CRAF [5] was “not ARAF and CRAF”.

Usually IC50 stands for the concentration that gives 50% inhibition. The DC50 is the concentration giving 50% degradation.
